Measured values taken from patent publication US20240067632A1, “WEE1 Degrading Compounds and Uses Thereof” (Bristol-Myers Squibb Company, priority 2022, published 2024).
Like-named read-outs stand apart in the source and are kept apart here.

Tests used:
MKN45 cells = assay: MKN45 cell proliferation assay (Cell-Titer-Glo, 120 h); format: cell-based; conditions: for EC50: Homo sapiens, MKN-45, 120 h, Cell-Titer-Glo, read-out: MKN45 Cell Prolif. 120 hr (EC50); for MKN45 Cell Prolif. 120 hr (Ymin-Obs): minimal percent of DMSO control observed in the concentrations tested
Summary of the method: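 Growth inhibition was read as blank-corrected Cell-Titer-Glo luminescence expressed as percent DMSO control after 120 h at 37 C, 400 cells/well. Compounds tested in triplicate as 10-point half-log series from 1 or 10 uM, 0.1% DMSO; four-parameter fit gave EC50, and lowest observed percent control was reported as Ymin-obs.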

WEE1 = molecular target: T1, WEE1 (Homo sapiens, UniProt P30291+Q96SW2); assay: WEE1-ePL degradation assay (LentiX-WEE1-ePL-GSPT1-ND cells, InCELL Hunter luminescence, 4 h); format: cell-based; conditions: 293T-LentiX WEE1-ePL cells; for DC50: read-out: 293T-LentiX WEE1-ePL Degradation 4 hr (EC50)
T1 construct: C-terminal ePL-tagged (DiscoverX, Fremont, CA) full-length WEE1 expression construct; expressed in transfected cells; host or cells: LentiX-HEK293T (Invitrogen), lentiviral transduction; co-expressing GSPT1-GN (G576N, lacking the first 158 amino acids)
Summary of the method: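 Degradation EC50 was fitted by a four-parameter logistic model, with the upper limit taken from DMSO wells. Luminescence was read with InCELL Hunter reagent after 30 min at room temperature, following a 4 h, 37° C exposure of 2500 cells/well. Cells were LentiX-HEK293T carrying ePL-tagged full-length WEE1, dosed in 10 points (3-fold) from 1 or 10 uM.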

[1] = lower limit of the fit (Ymin=0 luciferase inhibitor, Ymax DMSO control)
[2] = lower limit of the fit (0 = luciferase inhibitor, Ymax = DMSO control)

EC50 (MKN45 cells) [nM] | 293T-LentiX WEE1-ePL Degradation 4 hr (Ymin) (WEE1; [1]) | DC50 (WEE1) [nM] | EC50 (MKN45 cells; growth inhibition) [nM] | 293T-LentiX WEE1-ePL Degradation 4 hr (Ymin) (WEE1; [2]) | SMILES | MKN45 Cell Prolif. 120 hr (Ymin-Obs) (MKN45 cells)
15.2 | 37.97 | 11.1 | – | – | CN1CCN(c2ncc3cc(CN4CC[C@H](Oc5ccc6c(c5)CN([C@H]5CCC(=O)NC5=O)C6=O)C4)ccc3n2)CC1 [(3S)-3-(5-{[(3S)-1-{[2-(4-methylpiperazin-1-yl)quinazolin-6-yl]methyl}pyrrolidin-3-yl]oxy}-1-oxo-2,3-dihydro-1H-isoindol-2-yl)piperidine-2,6-dione] | 12.23
1.12 | 27.27 | 1.41 | – | – | COC[C@@H]1CN(Cc2ccc3nc(N4CCN(C(C)=O)CC4)ccc3c2)C[C@H]1Oc1ccc2c(c1)CN([C@H]1CCC(=O)NC1=O)C2=O [(3S)-3-(5-{[(3S,4S)-1-{[2-(4-acetylpiperazin-1-yl)quinolin-6-yl]methyl}-4-(methoxymethyl)pyrrolidin-3-yl]oxy}-1-oxo-2,3-dihydro-1H-isoindol-2-yl)piperidine-2,6-dione] | 8.785
– | – | 4.25 | 4.65 | 27.43 | C[C@@H]1CN(Cc2ccc3nc([C@@H]4CCOC(C)(C)C4)ccc3c2)C[C@H]1Oc1ccc2c(c1)CN(C1CCC(=O)NC1=O)C2=O (stereo partly drawn) [3-(5-{[(3S,4R)-1-({2-[(4R)-2,2-dimethyloxan-4-yl]quinolin-6-yl}methyl)-4-methylpyrrolidin-3-yl]oxy}-1-oxo-2,3-dihydro-1H-isoindol-2-yl) piperidine-2,6-dione] | 9.178
0.16 | 54.54 | 2.58 | – | – | O=C1CC[C@H](N2Cc3cc(O[C@H]4CCN(Cc5cc(C6CC6)c6nc(C7CCOCC7)ccc6c5)C4)ccc3C2=O)C(=O)N1 [(3S)-3-(5-{[(3S)-1-{[8-cyclopropyl-2-(oxan-4-yl)quinolin-6-yl]methyl}pyrrolidin-3-yl]oxy}-1-oxo-2,3-dihydro-1H-isoindol-2-yl)piperidine-2,6-dione] | 3.047
1.49 | 27.42 | 1.13 | – | – | C[C@@H]1CN(Cc2cc(F)c3nc(C4CCOCC4)ccc3c2)C[C@H]1Oc1ccc2c(c1)CN(C1CCC(=O)NC1=O)C2=O (stereo partly drawn) [3-(5-{[(3S,4R)-1-{[8-fluoro-2-(oxan-4-yl)quinolin-6-yl]methyl}-4-methylpyrrolidin-3-yl]oxy}-1-oxo-2,3-dihydro-1H-isoindol-2-yl)piperidine-2,6-dione] | 7.781
– | – | 2.69 | 11.9 | 35 | O=C1CCC(N2Cc3cc(O[C@H]4CCN(Cc5ccc6nc(N7CCOCC7)ccc6c5)C4)ccc3C2=O)C(=O)N1 (stereo partly drawn) [3-(5-{[(3S)-1-{[2-(morpholin-4-yl)quinolin-6-yl]methyl}pyrrolidin-3-yl]oxy}-1-oxo-2,3-dihydro-1H-isoindol-2-yl)piperidine-2,6-dione] | 12.168
– | – | 0.844 | 1.82 | 33.42 | O=C1CC[C@H](N2Cc3cc(O[C@H]4CCN(Cc5cc6ccc(C7CCOCC7)cc6cn5)C4)ccc3C2=O)C(=O)N1 [(3S)-3-(5-{[(3S)-1-{[7-(oxan-4-yl)isoquinolin-3-yl]methyl}pyrrolidin-3-yl]oxy}-1-oxo-2,3-dihydro-1H-isoindol-2-yl)piperidine-2,6-dione] | 8.913
– | – | 2.41 | 2.45 | 30 | O=C1CCC(N2Cc3cc(O[C@H]4CCN(Cc5ccc6nc([C@@H]7CCOC7)ccc6c5)C4)ccc3C2=O)C(=O)N1 (stereo partly drawn) [3-(1-oxo-5-{[(3S)-1-({2-[(3S)-oxolan-3-yl]quinolin-6-yl}methyl)pyrrolidin-3-yl]oxy}-2,3-dihydro-1H-isoindol-2-yl)piperidine-2,6-dione] | 8.77
